The values that follow come from paper PMC11385697, “Bibacillin 1: a two-component lantibiotic from Bacillus thuringiensis” (RSC Chemical Biology, 2024).

Data set [1] has as its system rabbit erythrocytes. As to the kind of experiment: Agar diffusion hemolysis assay. In kind it is cell-based. The settings on record: 300 pmol peptide spotted (3 μL of 100 μM in PBS); 5% (v/v) rabbit erythrocytes in 0.7% BHI agar; 37 °C, 16 h; mixtures 1 : 1. Here is the method: Cytolysin was used as a positive control.
Defibrinated rabbit erythrocytes (Hemostat) were washed by 5-fold dilution in cold sterile PBS, followed by centrifugation at 1000g for 10 min and decanting. This process was repeated until the supernatant was clear. The washed erythrocytes were diluted to a concentration of 5% (v/v) in molten BHI containing 0.7% agar cooled to 50 °C and the mixture was immediately deposited onto a warm 2% BHI agar plate. After setting at room temperature for at least 30 min, 3 μL of peptide solution diluted in PBS to a concentration of 100 μM was deposited onto the agar plate and the plate was allowed to stand for another 30 min. The plate was then incubated at 37 °C for 16 h before documentation.
(In general: A growth-free zone around the sample is the usual read-out of agar diffusion tests.)

Data set [2] deals with M. luteus ATCC 4698. The experiment in a line: Time-kill assay. In kind it is cell-based, Micrococcus luteus. The note with it: total peptide 20 μM, 30 °C; for killing activity in time-kill assay: mixture 1 : 1. Here is the method: The solutions were incubated at 30 °C with shaking. At each time point, 20 μL was removed from each culture and immediately streaked onto tryptic soy broth agar plates. The plates were incubated at 30 °C for 36–48 h and colonies were counted.

The test system of data set [3] is T1, lipid II consumption by E. coli PBP1b.
T1 construct: made in house
As to the kind of experiment: In vitro peptidoglycan synthesis assay with lipid II substrate (TLC). In kind it is biochemical. The settings on record: 4 equivalents of peptide relative to lipid II; 30 °C, 2 h; thin layer chromatography; mixture 1 : 1. The protocol: A solution of lipid II (1.5 nmol) in 1 : 1 CHCl3 : MeOH that was prepared by a previously disclosed procedure[87] was added to a low binding Eppendorf tube and concentrated to remove any organic solvent. Triton X-100 (1% v/v, 2 μL) was added to the residue and the mixture was sonicated briefly before diluting with 37.5 μL of reaction buffer (20 mM MES, 2 mM MgCl2, 2 mM CaCl2, pH = 5.5). The solution was then transferred to a new low binding Eppendorf tube containing lanthipeptide. The mixture was vortexed and briefly sonicated to ensure dissolution. The mixtures were incubated for 10 min at room temperature before adding PBP1b (6 μg), which was prepared as described elsewhere,[77] and then incubated at 30 °C. After 2 h, 150 μL nBuOH : AcOH-pyridine (2 : 1) was added to the reaction mixture and the organic layer was removed, washed with 40 μL of water and then concentrated. The residue was dissolved in 12 μL of 1 : 1 MeOH : CHCl3 and 3 μL was deposited onto a silica gel plate. The TLC plate was developed in mobile phase (88 : 48 : 10 : 1 CHCl3 : MeOH : H2O : NH4OH) for 10 min before drying and staining the plate with cerium ammonium sulfate. The plate was documented immediately after the staining procedure was completed.

Data set [4] in a line: Dynamic light scattering of aggregates. The settings on record: phosphate buffered saline pH = 7.4, room temperature, total peptide 1 μM; for average diameter of aggregates (DLS): SDS-free. It counts as physicochemical. Here is the method:
Fig. 6 Exploring the quorum sensing mechanism of bibacillin 1. (A) Assays to assess whether bibacillin 1 triggers the CylR1/R2 system. A reporter strain of E. faecalis with LacZ expression under the control of the CylR1/R2 system was seeded into soft agar containing X-gal. Next, 300 pmol of Bib1α, Bib1β, and Bib1βDha either separately or as 1 : 1 mixtures were deposited onto the soft agar layer. Nisin (300 pmol) and CylLS′′ (30 pmol) were used as negative and positive controls, respectively. (B) Size distributions obtained using dynamic light scattering showing the oligomeric states of Bib1α, Bib1β, and Bib1α : Bib1β (1 : 1) in phosphate buffered saline (pH = 7.4) at room temperature. In each case, the total peptide concentration was 1 μM.
Enzyme mixtures used for molecular biology were purchased from New England BioLabs (NEB) (Ipswich, MA). Chemicals were purchased from Sigma-Aldrich (St. Louis, MO). Growth media were purchased from Becton, Dickinson and Company (Franklin Lake, NJ) or Fisher Scientific (Pittsburgh, PA). Single stranded DNA used as primers for PCR were purchased from Integrated DNA Technologies (Newark, NJ). Gene fragments were purchased from Twist Bioscience (San Francisco, CA). The sequences of primers and gene fragments can be found in Tables S2 and S3 (ESI ^†), respectively. Whole plasmid sequencing was performed by Plasmidsaurus using Oxford Nanopore Technology with custom analysis and annotation. Matrix-assisted laser desorption/ionization time-of-flight mass spectrometry (MALDI-TOF MS) analysis was performed on a Bruker UltrafleXtreme MALDI-TOF mass spectrometer (Bruker Daltonics) at the University of Illinois School of Chemical Sciences Mass Spectrometry. All samples analyzed by MALDI-TOF MS were co-crystallized with Super DHB MALDI matrix purchased from Sigma-Aldrich. Semi-preparative reversed phase HPLC (R-HPLC) was performed on an Agilent 1260 infinity II LC system. Fluorescence emission intensities and optical densities were determined using a Biotek Synergy H4. Dynamic light scattering (DLS) analysis was performed on a Zetasizer Nanoseries (Malvern Panalytical,). CylLS′′ and CylLL′′ were prepared using a previously described procedure.[36] Nisin was isolated from commercially available crude extracts of Lactococcus lactis (Sigma Aldrich).

A short description of data set [5]: SDS-PAGE analysis of oligomerization. In kind it is physicochemical. The settings on record: in the presence of SDS. Here is the method: To determine whether bibacillin 1 could quorum sense through an aggregation mechanism, the aggregation propensity of bibacillin 1 was analyzed using SDS-PAGE and dynamic light scattering (DLS). […] Since SDS can influence aggregation, the aggregation of bibacillin 1 was further investigated under SDS-free conditions using DLS (Fig. 6B). Bib1α exists in solution as aggregates that are 159 nm in diameter on average (PDI = 0.224) and Bib1β forms aggregates that are 291 nm in diameter on average (PDI = 0.384). […] Confirmation of this hypothesis will require in vitro studies with Bib1R1/R2.

A short description of data set [6]: In vitro pore formation assay, pyranine-encapsulated liposomes. The settings on record: total peptide 5 μM; for pore formation activity in liposomes: pH-dependent pyranine fluorescence, DOPC liposomes. Here is the method:
To investigate the lipid II-dependence of the pore formation activity of bibacillin 1, pyranine-encapsulated liposomes were prepared containing or lacking lipid II and pore formation was monitored via pH-dependent pyranine fluorescence.[79]
This assay was conducted as described elsewhere.[79]

In data set [7] the test system is M. luteus ATCC 4698. As to the kind of experiment: Membrane depolarization assay, DiSC3(5). The note with it: DiSC3(5) fluorescence; M. luteus OD600 = 0.2; 30 min; peptides individually.
Method: (B) DiSC3(5) fluorescence signal after incubation of M. luteus (OD600 = 0.2) with Bib1α or Bib1β individually or as a 1 : 1 mixture for 30 min. […] In all cases, a total peptide concentration of 5 μM was used.
The mixture was transferred to a 96-well black plate and the fluorescence of DiSC3(5) was measured using an excitation wavelength of 622 nm and an emission wavelength of 670 nm throughout the experiment. The fluorescence signal was measured for 8 min prior to the addition of peptides. After adding peptides, the fluorescence signal was monitored for 30 min. The maximum fluorescence signal achieved over the entire course of the experiment was considered to be a metric of membrane depolarization activity and was plotted as a function of peptide concentration.
Data set [8] relates to rabbit erythrocytes. It counts as cell-based. The settings on record: total peptide concentration 2 μM; 1 h at 37 °C; mixture 1 : 1. Here is the method:
Solution phase hemolysis assays were conducted as described previously.[36]
Fig. S2. […] A) Hemoglobin release […]
erythrocytes were treated with 0.03% v/v triton X-100. Negative control contained only buffer. A total peptide concentration of 2 µM was used in each case. B) Extent of hemolysis after treating freshly washed rabbit erythrocytes with 1:1 of CylLS”:CylLL” at 37 ̊C for 1 h. Data was fit to a […]
(1 picture or pasted object on this page, not shown here)

As to `CC=C1NC(=O)[C@@H](N)[C@@H](C)SC[C@@H](C(=O)N[C@@H](C)C(=O)N[C@H](C(=O)NCC(=O)NCC(=O)NCC(=O)N[C@@H](CC(C)C)C(=O)N[C@@H](C)C(=O)N[C@@H](CC(C)C)C(=O)NCC(=O)N[C@@H](Cc2ccccc2)C(=O)N[C@@H](CO)C(=O)N[C@H](C(=O)N[C@@H]2CSC[C@@H](C(=O)O)NC(=O)[C@H](Cc3ccc(O)cc3)NC(=O)[C@H]([C@@H](C)CC)NC(=O)[C@H](CCCCN)NC2=O)[C@@H](C)CC)[C@@H](C)CC)NC(=O)[C@H](C(C)C)NC(=O)[C@@H]2CCCN2C1=O` [Bib1β], the “hemolytic activity on an agar plate” value with rabbit erythrocytes [1] is recorded as “showed hemolytic activity”. In addition, in the data set on M. luteus ATCC 4698 [2] (about 10^6 CFU per mL), the “time after treatment at which minimal cell counts were reached” value was determined as 8 h and the “killing activity in time-kill assay” value is recorded as “bactericidal”. Besides, the “protection of lipid II from consumption by PBP1b” value in data set [3] is “incapable of protecting lipid II”. In addition, in data set [4], the “PDI of aggregates (DLS)” value is 0.384, the “size distribution of aggregates (DLS)” value is “bimodal” and the “average diameter of aggregates (DLS)” value was determined as 291 nm. Also, the “oligomerization by SDS-PAGE” value in data set [5] is “oligomeric in the presence of SDS”. For the same molecule, in data set [6], the “pore formation activity in liposomes” value was “did not show pore formation activity”. For the same molecule, the “membrane depolarization activity, all concentrations tested” value in the data set on M. luteus ATCC 4698 [7] was “did not show strong membrane depolarization activity”. The “hemolysis in solution (hemoglobin release, absorbance at 415 nm)” value with rabbit erythrocytes [8] is given as “did not induce hemolysis”.

`C=C(NC(=O)[C@H](C)NC(=O)[C@@H]1CS[C@H](C)[C@H](N)C(=O)NC(=C)C(=O)N2CCC[C@H]2C(=O)N[C@@H](C)C(=O)N1)C(=O)N[C@@H](C)C(=O)N[C@@H](CCSC)C(=O)N[C@@H](CC(C)C)C(=O)N[C@@H](Cc1ccc(O)cc1)C(=O)N[C@@H](CC(C)C)C(=O)N[C@@H](CCC(N)=O)C(=O)NCC(=O)N[C@H](C(=O)NC(=CC)C(=O)N[C@H](C(=O)NC(=C)C(=O)N[C@@H](CC(C)C)C(=O)NCC(=O)N[C@@H](CC(C)C)C(=O)N[C@@H]1CSC[C@@H](C(=O)O)NC(=O)[C@H](Cc2c[nH]cn2)NC(=O)[C@H](CCSC)NC(=O)[C@H](CCCNC(=N)N)NC1=O)C(C)C)C(C)C` [Bib1α]: the “hemolytic activity on an agar plate” value in the data set on rabbit erythrocytes [1] is recorded as “showed hemolytic activity”. Moreover, the “time after which cells began to recover from treatment” value in the data set with M. luteus ATCC 4698 [2] is listed as 4 h. Moreover, in the data set on M. luteus ATCC 4698 [2] (about 10^6 CFU per mL), the “killing activity in time-kill assay” value is given as “bactericidal”. Further, the “protection of lipid II from consumption by PBP1b” value in data set [3] is listed as “incapable of protecting lipid II”. Also, in data set [4], the “PDI of aggregates (DLS)” value was 0.224 and the “average diameter of aggregates (DLS)” value turned out to be 159 nm. In addition, the “oligomerization by SDS-PAGE” value in data set [5] is listed as “oligomeric in the presence of SDS”. Further, in data set [6] (DOPC liposomes containing or lacking 0.1 mol% lipid II), the “lipid II dependence of pore formation activity” value is recorded as “somewhat enhanced by the addition of lipid II”. For the same molecule, in data set [6], the “pore formation activity in liposomes” value is listed as “showed pore formation activity”. The “membrane depolarization activity, all concentrations tested” value in the data set with M. luteus ATCC 4698 [7] is “did not show strong membrane depolarization activity”. Further, in the data set with rabbit erythrocytes [8], the “hemolysis in solution (hemoglobin release, absorbance at 415 nm)” value is given as “did not induce hemolysis”.

`C=C(NC(=O)[C@H](Cc1ccccc1)NC(=O)CNC(=O)[C@H](CC(C)C)NC(=O)[C@H](C)NC(=O)[C@H](CC(C)C)NC(=O)CNC(=O)CNC(=O)CNC(=O)[C@@H](NC(=O)[C@H](C)NC(=O)[C@@H]1CS[C@H](C)[C@H](N)C(=O)NC(=CC)C(=O)N2CCC[C@H]2C(=O)N[C@@H](C(C)C)C(=O)N1)[C@@H](C)CC)C(=O)N[C@H](C(=O)N[C@@H]1CSC[C@@H](C(=O)O)NC(=O)[C@H](Cc2ccc(O)cc2)NC(=O)[C@H]([C@@H](C)CC)NC(=O)[C@H](CCCCN)NC1=O)[C@@H](C)CC` [Bib1βDha]: the “hemolytic activity on an agar plate” value with rabbit erythrocytes [1] was “did not show any hemolytic activity beyond that of a negative control”.
